Test results taken from the NIST ThermoML archive (doi:10.1021/je0498053).
Numbers after ± are expanded uncertainties.

Assays:
[1] = xn = mol fraction of the nth substance listed; settings: 101.3 kPa, Liquid
[2] = 101.3 kPa, Liquid

CCCCN [1-butanamine] + CCCCC(C)O
[1], x1 = 1
Settings	mass density [kg/m3]	viscosity [mPa·s]
303.15 K	732.1 ± 1.2	0.46 ± 0.03
313.15 K	722.9 ± 1.2	0.4 ± 0.02
323.15 K	712.7 ± 1.2	0.36 ± 0.02

CCCCN [1-butanamine] + CCCC(C)CO
[1], x1 = 1
Settings	mass density [kg/m3]	viscosity [mPa·s]
303.15 K	732.1 ± 1.2	0.46 ± 0.03
313.15 K	722.9 ± 1.2	0.4 ± 0.02
323.15 K	712.7 ± 1.2	0.36 ± 0.02

CCCC(C)(C)O [2-methyl-2-pentanol]
[2]
Settings	mass density [kg/m3]	viscosity [mPa·s]
303.15 K	810.8 ± 0.9	2.93 ± 0.13
313.15 K	802.4 ± 1	2.06 ± 0.1
323.15 K	793.5 ± 1	1.46 ± 0.07

CCCCN [1-butanamine]
[2]
Settings	mass density [kg/m3]	viscosity [mPa·s]
303.15 K	732.1 ± 1.2	0.46 ± 0.03
313.15 K	722.9 ± 1.2	0.4 ± 0.02
323.15 K	712.7 ± 1.2	0.36 ± 0.02

CCCCC(C)O (stereo unspecified) [2-hexanol] + CCCCN
[1]
Settings	mass density, 303.15 K [kg/m3]	mass density, 313.15 K [kg/m3]	mass density, 323.15 K [kg/m3]	viscosity, 303.15 K [mPa·s]	viscosity, 313.15 K [mPa·s]	viscosity, 323.15 K [mPa·s]
x2 = 0	806.4 ± 0.9	798.4 ± 1	790.1 ± 1	3.23 ± 0.15	2.29 ± 0.11	1.64 ± 0.08
x2 = 0.1	802 ± 1	794.2 ± 1	786 ± 1	2.67 ± 0.12	1.97 ± 0.09	1.45 ± 0.07
x2 = 0.2	796.7 ± 1	788.9 ± 1	780.6 ± 1	2.19 ± 0.1	1.68 ± 0.08	1.26 ± 0.06
x2 = 0.3	791.5 ± 1	783.7 ± 1	775.3 ± 1	1.78 ± 0.08	1.4 ± 0.07	1.1 ± 0.05
x2 = 0.4	785 ± 1	776.9 ± 1	768.5 ± 1	1.47 ± 0.07	1.17 ± 0.06	0.93 ± 0.05
x2 = 0.5	777.7 ± 1	769.4 ± 1	760.8 ± 1.1	1.2 ± 0.06	0.98 ± 0.05	0.79 ± 0.04
x2 = 0.6	769.8 ± 1	761.4 ± 1.1	751.1 ± 1.1	0.97 ± 0.05	0.81 ± 0.04	0.67 ± 0.04
x2 = 0.6999	760.7 ± 1.1	752.1 ± 1.1	741.6 ± 1.1	0.79 ± 0.04	0.68 ± 0.04	0.57 ± 0.03
x2 = 0.8	751.3 ± 1.1	742.7 ± 1.1	732.4 ± 1.1	0.65 ± 0.03	0.56 ± 0.03	0.47 ± 0.03
x2 = 0.9	742.1 ± 1.1	732.9 ± 1.1	722.9 ± 1.2	0.53 ± 0.03	0.47 ± 0.03	0.4 ± 0.02

CCCCN [1-butanamine] + CC(C)CC(C)O
[1], x1 = 1
Settings	mass density [kg/m3]	viscosity [mPa·s]
303.15 K	732.1 ± 1.2	0.46 ± 0.03
313.15 K	722.9 ± 1.2	0.4 ± 0.02
323.15 K	712.7 ± 1.2	0.36 ± 0.02

CCCC(O)CC (stereo unspecified) [3-hexanol] + CCCCN
[1]
Settings	mass density, 303.15 K [kg/m3]	mass density, 313.15 K [kg/m3]	mass density, 323.15 K [kg/m3]	viscosity, 303.15 K [mPa·s]	viscosity, 313.15 K [mPa·s]	viscosity, 323.15 K [mPa·s]
x2 = 0	810.2 ± 1.2	801.7 ± 1.2	792.8 ± 1.2	3.52 ± 0.16	2.34 ± 0.11	1.58 ± 0.08
x2 = 0.1	806.4 ± 1.2	798.4 ± 1.2	789.8 ± 1.2	2.85 ± 0.13	2.2 ± 0.1	1.44 ± 0.07
x2 = 0.2	801.4 ± 1.1	793.5 ± 1.2	785 ± 1.2	2.26 ± 0.11	1.79 ± 0.09	1.24 ± 0.06
x2 = 0.3	795.6 ± 1.1	787.5 ± 1.1	776.9 ± 1.2	1.78 ± 0.08	1.39 ± 0.07	1.07 ± 0.05
x2 = 0.3999	788.6 ± 1.1	780.5 ± 1.1	770 ± 1.2	1.41 ± 0.07	1.09 ± 0.05	0.91 ± 0.05
x2 = 0.5	780.4 ± 1.1	772 ± 1.1	763.2 ± 1.1	1.13 ± 0.06	0.89 ± 0.05	0.76 ± 0.04
x2 = 0.5999	772 ± 1.1	763.5 ± 1.1	754.5 ± 1.2	0.92 ± 0.05	0.78 ± 0.04	0.65 ± 0.04
x2 = 0.7	762.9 ± 1.1	754.1 ± 1.1	745.2 ± 1.2	0.76 ± 0.04	0.68 ± 0.04	0.55 ± 0.03
x2 = 0.7999	753 ± 1.1	743.6 ± 1.1	734.4 ± 1.2	0.65 ± 0.03	0.58 ± 0.03	0.48 ± 0.03
x2 = 0.9	742 ± 1.1	732.7 ± 1.2	723.2 ± 1.2	0.54 ± 0.03	0.46 ± 0.03	0.4 ± 0.02

CCCCC(C)O (stereo unspecified) [2-hexanol]
[2]
Settings	mass density [kg/m3]	viscosity [mPa·s]
303.15 K	806.4 ± 0.9	3.23 ± 0.15
313.15 K	798.4 ± 1	2.29 ± 0.11
323.15 K	790.1 ± 1	1.64 ± 0.08

CC(C)CC(C)O (stereo unspecified) [4-methyl-2-pentanol] + CCCCN
[1]
Settings	mass density, 303.15 K [kg/m3]	mass density, 313.15 K [kg/m3]	mass density, 323.15 K [kg/m3]	viscosity, 303.15 K [mPa·s]	viscosity, 313.15 K [mPa·s]	viscosity, 323.15 K [mPa·s]
x2 = 0	799.3 ± 1	790.7 ± 1	782 ± 1	3.23 ± 0.15	2.24 ± 0.1	1.55 ± 0.07
x2 = 0.1	794.8 ± 1	787 ± 1	778.6 ± 1	2.61 ± 0.12	1.91 ± 0.09	1.4 ± 0.07
x2 = 0.2	790.7 ± 1	782.9 ± 1	774.5 ± 1	2.06 ± 0.1	1.57 ± 0.07	1.21 ± 0.06
x2 = 0.3	785.2 ± 1	777.3 ± 1	768.9 ± 1	1.66 ± 0.08	1.31 ± 0.06	1.02 ± 0.05
x2 = 0.3999	779.6 ± 1	771.5 ± 1	763 ± 1.1	1.35 ± 0.07	1.09 ± 0.05	0.87 ± 0.04
x2 = 0.5	772.8 ± 1	764.6 ± 1.1	755.9 ± 1.1	1.09 ± 0.05	0.91 ± 0.05	0.75 ± 0.04
x2 = 0.6	766 ± 1.1	757.5 ± 1.1	748.6 ± 1.1	0.92 ± 0.05	0.77 ± 0.04	0.64 ± 0.03
x2 = 0.6999	758 ± 1.1	749.4 ± 1.1	740.3 ± 1.1	0.77 ± 0.04	0.65 ± 0.03	0.54 ± 0.03
x2 = 0.7999	749.7 ± 1.1	740.9 ± 1.1	731.1 ± 1.2	0.64 ± 0.03	0.55 ± 0.03	0.47 ± 0.03
x2 = 0.9	740.8 ± 1.1	731.7 ± 1.2	721.7 ± 1.2	0.56 ± 0.03	0.48 ± 0.03	0.41 ± 0.02

CCCC(C)CO (stereo unspecified) [2-methyl-1-pentanol]
[2]
Settings	mass density [kg/m3]	viscosity [mPa·s]
303.15 K	816.8 ± 1.2	4.55 ± 0.21
313.15 K	809.5 ± 1.2	3.18 ± 0.15
323.15 K	801.5 ± 1.2	2.25 ± 0.11

CC(C)CC(C)O (stereo unspecified) [4-methyl-2-pentanol]
[2]
Settings	mass density [kg/m3]	viscosity [mPa·s]
303.15 K	799.3 ± 1	3.23 ± 0.15
313.15 K	790.7 ± 1	2.24 ± 0.1
323.15 K	782 ± 1	1.55 ± 0.07

CCCC(O)CC (stereo unspecified) [3-hexanol]
[2]
Settings	mass density [kg/m3]	viscosity [mPa·s]
303.15 K	810.2 ± 1.2	3.52 ± 0.16
313.15 K	801.7 ± 1.2	2.34 ± 0.11
323.15 K	792.8 ± 1.2	1.58 ± 0.08

CCCC(C)(C)O [2-methyl-2-pentanol] + CCCCN
[1]
Settings	mass density, 303.15 K [kg/m3]	mass density, 313.15 K [kg/m3]	mass density, 323.15 K [kg/m3]	viscosity, 303.15 K [mPa·s]	viscosity, 313.15 K [mPa·s]	viscosity, 323.15 K [mPa·s]
x2 = 0	810.8 ± 0.9	802.4 ± 1	793.5 ± 1	2.93 ± 0.13	2.06 ± 0.1	1.46 ± 0.07
x2 = 0.1	806.7 ± 0.9	798.2 ± 1	789.2 ± 1	2.62 ± 0.12	1.88 ± 0.09	1.34 ± 0.06
x2 = 0.2	801.5 ± 1	793.1 ± 1	784 ± 1	2.25 ± 0.1	1.66 ± 0.08	1.2 ± 0.06
x2 = 0.3	795.7 ± 1	787.2 ± 1	778.2 ± 1	1.86 ± 0.09	1.41 ± 0.07	1.04 ± 0.05
x2 = 0.4	788.8 ± 1	780.2 ± 1	771.2 ± 1	1.55 ± 0.07	1.2 ± 0.06	0.92 ± 0.05
x2 = 0.4999	781.4 ± 1	772.8 ± 1	763.7 ± 1.1	1.26 ± 0.06	1 ± 0.05	0.79 ± 0.04
x2 = 0.5999	772.9 ± 1	764.2 ± 1.1	754.7 ± 1.1	1.01 ± 0.05	0.83 ± 0.04	0.67 ± 0.04
x2 = 0.7	763.8 ± 1.1	755 ± 1.1	745.1 ± 1.1	0.82 ± 0.04	0.69 ± 0.04	0.57 ± 0.03
x2 = 0.8	753.4 ± 1.1	744.3 ± 1.1	734.3 ± 1.1	0.66 ± 0.04	0.57 ± 0.03	0.48 ± 0.03
x2 = 0.9	742.4 ± 1.1	733.3 ± 1.1	723.6 ± 1.2	0.54 ± 0.03	0.47 ± 0.03	0.41 ± 0.02

CCCC(C)CO (stereo unspecified) [2-methyl-1-pentanol] + CCCCN
[1]
Settings	mass density, 303.15 K [kg/m3]	mass density, 313.15 K [kg/m3]	mass density, 323.15 K [kg/m3]	viscosity, 303.15 K [mPa·s]	viscosity, 313.15 K [mPa·s]	viscosity, 323.15 K [mPa·s]
x2 = 0	816.8 ± 1.2	809.5 ± 1.2	801.5 ± 1.2	4.55 ± 0.21	3.18 ± 0.15	2.25 ± 0.11
x2 = 0.1	810.3 ± 1.2	803 ± 1.2	795.3 ± 1.2	3.38 ± 0.16	2.51 ± 0.12	1.85 ± 0.09
x2 = 0.2	804.8 ± 1.1	797.4 ± 1.1	789.6 ± 1.2	2.67 ± 0.12	2.06 ± 0.1	1.57 ± 0.08
x2 = 0.2999	798.2 ± 1.1	790.6 ± 1.1	782.6 ± 1.2	2.1 ± 0.1	1.65 ± 0.08	1.32 ± 0.06
x2 = 0.4	791 ± 1.1	783.2 ± 1.1	775 ± 1.1	1.67 ± 0.08	1.35 ± 0.07	1.08 ± 0.05
x2 = 0.5	783.6 ± 1.1	775.7 ± 1.1	767.2 ± 1.1	1.37 ± 0.07	1.11 ± 0.06	0.91 ± 0.05
x2 = 0.6	774.5 ± 1.1	766.3 ± 1.1	757.7 ± 1.1	1.1 ± 0.05	0.9 ± 0.05	0.75 ± 0.04
x2 = 0.6999	764.7 ± 1.1	756.2 ± 1.1	747.4 ± 1.2	0.89 ± 0.05	0.72 ± 0.04	0.6 ± 0.03
x2 = 0.8	753.9 ± 1.1	745.2 ± 1.1	736.1 ± 1.2	0.69 ± 0.04	0.59 ± 0.03	0.5 ± 0.03
x2 = 0.8999	742.9 ± 1.1	734.5 ± 1.2	724.3 ± 1.2	0.54 ± 0.03	0.48 ± 0.03	0.42 ± 0.03

CCCCN [1-butanamine] + CCCC(C)(C)O
[1], x1 = 1
Settings	mass density [kg/m3]	viscosity [mPa·s]
303.15 K	732.1 ± 1.2	0.46 ± 0.03
313.15 K	722.9 ± 1.2	0.4 ± 0.02
323.15 K	712.7 ± 1.2	0.36 ± 0.02

CCCCN [1-butanamine] + CCCC(O)CC
[1], x1 = 1
Settings	mass density [kg/m3]	viscosity [mPa·s]
303.15 K	732.1 ± 1.2	0.46 ± 0.03
313.15 K	722.9 ± 1.2	0.4 ± 0.02
323.15 K	712.7 ± 1.2	0.36 ± 0.02
